Results on 10 compounds are retold here after patent publication US20250213555A1, “SUBSTITUTED TETRAHYDROFURAN ANALOGS AS MODULATORS OF SODIUM CHANNELS” (VERTEX PHARMACEUTICALS INCORPORATED, priority 2021, published 2025).

pIC50: −log10 of the molar value.

In the assay the target is human Nav 1.8 (Homo sapiens, UniProt Q9Y5Y9). Nature of the assay: E-VIPR assay detecting and measuring Nav inhibition properties. As to conditions: HEK cells expressing a truncated form of human Nav 1.8; compound numbers without "*" (not marked as run in the presence of human serum); read-out: measured IC50 value in the E-VIPR Assay. Type of assay: cell-based. An outline of the steps: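 Nav inhibition was read by E-VIPR: cells were electrically stimulated while coumarin/oxonol FRET emissions were recorded. Cells were HEK expressing a truncated human Nav 1.8 and co-transduced with KIR2.1, and were assayed in 25% final human serum.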
Chain of human Nav 1.8 (Q9Y5Y9 126-399 limits assumed): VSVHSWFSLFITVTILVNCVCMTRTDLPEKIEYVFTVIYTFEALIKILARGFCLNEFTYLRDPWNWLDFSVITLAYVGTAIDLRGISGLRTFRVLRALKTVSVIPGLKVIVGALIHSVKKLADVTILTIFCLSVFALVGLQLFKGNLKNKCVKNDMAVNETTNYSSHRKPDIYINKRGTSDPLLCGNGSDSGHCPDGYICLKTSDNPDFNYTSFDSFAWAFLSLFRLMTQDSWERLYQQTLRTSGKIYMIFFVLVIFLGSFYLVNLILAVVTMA
Chain of human Nav 1.8 (Q9Y5Y9 660-890 limits assumed): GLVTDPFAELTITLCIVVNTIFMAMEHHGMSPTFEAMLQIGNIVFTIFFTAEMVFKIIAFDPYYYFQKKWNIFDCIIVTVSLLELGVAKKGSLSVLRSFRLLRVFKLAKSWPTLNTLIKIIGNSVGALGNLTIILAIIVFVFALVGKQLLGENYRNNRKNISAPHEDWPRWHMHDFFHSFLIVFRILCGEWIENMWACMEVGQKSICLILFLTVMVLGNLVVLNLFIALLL
Chain of human Nav 1.8 (Q9Y5Y9 1148-1722 limits assumed): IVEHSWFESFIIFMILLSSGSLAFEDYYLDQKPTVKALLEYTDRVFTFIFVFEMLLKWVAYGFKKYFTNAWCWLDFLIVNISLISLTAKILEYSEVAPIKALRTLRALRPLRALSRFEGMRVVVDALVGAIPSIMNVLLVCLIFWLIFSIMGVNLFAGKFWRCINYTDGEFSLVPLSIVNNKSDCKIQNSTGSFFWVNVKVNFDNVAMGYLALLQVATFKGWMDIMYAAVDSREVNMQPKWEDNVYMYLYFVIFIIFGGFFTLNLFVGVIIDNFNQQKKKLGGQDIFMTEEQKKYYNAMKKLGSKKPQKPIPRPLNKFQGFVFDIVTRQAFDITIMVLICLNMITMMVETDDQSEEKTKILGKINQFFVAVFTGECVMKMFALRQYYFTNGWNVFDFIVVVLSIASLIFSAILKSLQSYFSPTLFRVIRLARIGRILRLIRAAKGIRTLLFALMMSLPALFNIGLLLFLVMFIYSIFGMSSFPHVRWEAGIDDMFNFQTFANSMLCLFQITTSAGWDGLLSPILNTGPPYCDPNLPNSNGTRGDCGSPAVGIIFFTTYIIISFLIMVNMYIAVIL
On to `COc1c([C@H]2[C@H](C(=O)Nc3ccnc(C(=O)N4C[C@@H](C)N(C)C[C@H]4C)c3)O[C@@](C)(C(F)(F)F)[C@H]2C)ccc(F)c1F` [Compound 289, (2R,3S,4S,5R)-3-(3,4-difluoro-2-methoxyphenyl)-4,5-dimethyl-5-(trifluoromethyl)-N-(2-((2R,5R)-2,4,5-trimethylpiperazine-1-carbonyl)pyridin-4-yl)tetrahydrofuran-2-carboxamide], for which the pIC50 (as a rule, −log10 of the IC50, conventionally taken in molar units) was 7.00 to 8.00.

Regarding `COCc1c([C@H]2[C@H](C(=O)Nc3ccnc(C(N)=O)c3)O[C@@](C)(C(F)(F)F)[C@H]2C)ccc(F)c1F` (single isomer, unassigned) [Compound 147], the pIC50 was greater than 8.00. `C[C@H]1[C@@H](c2ccc(F)c(F)c2OCc2cnco2)[C@H](C(=O)Nc2ccnc(C(N)=O)c2)O[C@@]1(C)C(F)(F)F` [Compound 6]: the pIC50 was greater than 8.00. Take `CNC(=O)c1cc(NC(=O)[C@@H]2O[C@@](C)(C(F)(F)F)[C@@H](C)[C@H]2c2ccc(F)c(F)c2OC[C@H](C)N2CC3(COC3)C2)ccn1` [Compound 43, 4-((2R,3S,4S,5R)-3-(2-((S)-2-(2-oxa-6-azaspiro[3.3]heptan-6-yl)propoxy)-3,4-difluorophenyl)-4,5-dimethyl-5-(trifluoromethyl)tetrahydrofuran-2-carboxamido)-N-methylpicolinamide]: the pIC50 is greater than 8.00.

In the case of `COc1c([C@H]2[C@H](C(=O)Nc3ccnc(C(=O)N4CCNCC4)c3)O[C@@](C)(C(F)(F)F)[C@H]2C)ccc(F)c1F` [Compound 224, (2R,3S,4S,5R)-3-(3,4-difluoro-2-methoxyphenyl)-4,5-dimethyl-N-(2-(piperazine-1-carbonyl)pyridin-4-yl)-5-(trifluoromethyl)tetrahydrofuran-2-carboxamide], the pIC50 is greater than 8.00.

For the compound `CC1C(c2ccc(F)c(F)c2OCC2CC(C)(O)C2)C(C(=O)Nc2ccnc(C(N)=O)c2)OC1(C)C(F)(F)F` (single isomer, unassigned) [Compound 200, rel-4-((2R*,3S*,4S*,5R*)-3-(3,4-difluoro-2-(((1s,3R)-3-hydroxy-3-methylcyclobutyl)methoxy)phenyl)-4,5-dimethyl-5-(trifluoromethyl)tetrahydrofuran-2-carboxamido)picolinamide], the pIC50 was 7.00 to 8.00. With `C[C@@H](Oc1c([C@H]2[C@H](C(=O)Nc3ccnc(C(N)=O)c3)O[C@@](C)(C(F)(F)F)[C@H]2C)ccc(F)c1F)C1COC1` [Compound 157, 4-((2R,3S,4S,5R)-3-(3,4-difluoro-2-((R)-1-(oxetan-3-yl)ethoxy)phenyl)-4,5-dimethyl-5-(trifluoromethyl)tetrahydrofuran-2-carboxamido)picolinamide] the figure was greater than 8.00. With `COCC(COc1c([C@H]2[C@H](C(=O)Nc3ccnc(C(N)=O)c3)O[C@@](C)(C(F)(F)F)[C@H]2C)ccc(F)c1F)OC` (stereo partly drawn) [Compound 78, 4-((2R,3S,4S,5R)-3-(2-(2,3-dimethoxypropoxy)-3,4-difluorophenyl)-4,5-dimethyl-5-(trifluoromethyl)tetrahydrofuran-2-carboxamido)picolinamide] the figure was greater than 8.00; with `C[C@H]1[C@@H](c2ccc(F)c(F)c2OC2CN(C)C2)[C@H](C(=O)Nc2ccnc(C(N)=O)c2)O[C@@]1(C)C(F)(F)F` [Compound 101, 4-((2R,3S,4S,5R)-3-(3,4-difluoro-2-((1-methylazetidin-3-yl)oxy)phenyl)-4,5-dimethyl-5-(trifluoromethyl)tetrahydrofuran-2-carboxamido) picolinamide], 7.00 to 8.00.

As for `C[C@H]1[C@@H](c2ccc(F)c(F)c2OCCN2C3COCC2C3)[C@H](C(=O)Nc2ccnc(C(N)=O)c2)O[C@@]1(C)C(F)(F)F` [Compound 131, 4-((2R,3S,4S,5R)-3-(2-(2-(3-oxa-6-azabicyclo[3.1.1]heptan-6-yl)ethoxy)-3,4-difluorophenyl)-4,5-dimethyl-5-(trifluoromethyl)tetrahydrofuran-2-carboxamido)picolinamide], the pIC50 was 7.00 to 8.00.
